According to patent US20050164929A1, “Methods of preventing and treating inflammatory bowel disease” (LUPINE LOGIC, INC., priority 2000, published 2005):

How the values were obtained:
[1] = test system: NIH 3T3 murine embryonic lung fibroblasts; assay: BrdU incorporation (Studies L-117.01/02); type: cell-based, mouse; conditions: NIH 3T3, BrdU
Description: FIG. 19. […] Serum starved NIH 3T3 cells were treated with purified CG53135-01 (CG53135 in figure), 10% serum or vehicle only (control). DNA synthesis was measured in triplicate for each sample, using a BrdU incorporation assay. Data points represent average BrdU incorporation and bars represent standard error (SE).
(§1) Heterologous Protein Expression: CG53135-01 (batch 4A and 6) was used in these experiments. Protein was expressed using Escherichia coli (E. coli), BL21 (Novagen, Madison, Wis.), transformed with full-length CG53135-01 in a pETMY-hFGF20X/BL21 expression vector. Cells were harvested and disrupted, and then the soluble protein fraction was clarified by filtration and passed through a metal chelation column. The final protein fraction was dialyzed against phosphate buffered saline (PBS) plus 1 M L-arginine. Protein samples were stored at −70° C.
(§2) BrdU Incorporation: proliferative activity was measured by treatment of serum-starved cultured cells with a given agent and measurement of BrdU incorporation during DNA synthesis. Cells were cultured in respective manufacturer recommended basal growth medium supplemented with 10% fetal bovine serum or 10% calf serum as per manufacturer recommendations. Cells were grown in 96-well plates to confluence at 37° C. in 10% CO2/air (to subconfluence at 5% CO2 for dedifferentiated chondrocytes and NHOst). […]

[2] = test system: NIH 3T3 cells; assay: Growth assay (cell count); type: cell-based, mouse; conditions: 1 μg, 48 hours
Description: FIG. 20. CG53135 stimulates Growth of NIH 3T3 Fibroblasts. Duplicate wells of serum starved NIH 3T3 cells were treated for […] with purified CG53135-01 (1 ug) or vehicle control. Cell counts for each well were determined in duplicate. Y— axis identifies cell number, which is the average of 4 cell counts (treatment duplicates×duplicate counts) and standard error (SE).
Growth Assay: growth activity was obtained by measuring cell number following treatment of cultured cells with a given agent for a specified period of time. In general, cells grown to ˜20% confluency in 6-well dishes were treated with basal medium supplemented with CG53135 or control, incubated for several days, trypsinized and counted using a Coulter Z1 Particle Counter.
To determine if recombinant CG53135-01 sustained cell growth, NIH 3T3 cells were cultured with 1 μg CG53135-01 or control for 48 hours and then counted (FIG. 20). CG53135 induced an approximately 2-fold increase in cell number relative to control in this assay.

[3] = test system: MG-63 osteosarcoma cell line; assay: BrdU incorporation (Studies L-117.01/02); type: cell-based, human
Excerpt: as §1
as §2, with “NHOst). Cells were then starved in respective basal growth medium for 24-72 hours. CG53135 protein purified from E. coli or pCEP4/Sec or pCEP4/Sec-FGF 20× enriched conditioned medium was added (10 μL/100 μL of culture) for 18 hours. BrdU (10 μM final concentration) was then added and incubated with the cells for 5 hours.” for “NHOst).”

[4] = test system: breast epithelial cell line, B5589; assay: BrdU incorporation (Studies L-117.01/02); type: cell-based, human
Excerpt: as §1
as §2, with “NHOst). Cells were then starved in respective basal growth medium for 24-72 hours. CG53135 protein purified from E. coli or pCEP4/Sec or pCEP4/Sec-FGF 20× enriched conditioned medium was added (10 μL/100 μL of culture) for 18 hours. BrdU (10 μM final concentration) was then added and incubated with the cells for 5 hours.” for “NHOst).”

[5] = test system: HUVECS; assay: VEGF induced cell migration; type: cell-based, human; conditions: HUVEC
[6] = test system: endothelial cells; assay: Proliferation summary for variants; type: cell-based; conditions: in vitro
Description: (§3) Experiments were performed to evaluate the proliferative response of representative cell types to CG53135, e.g., a full-length tagged variant (CG53135-01), a deletion variant (CG53135-02), and a full-length codon-optimized untagged variant (CG53135-05).
(§4) CG53135-02 (batch 1 and 13) was also used in these experiments. Protein was expressed in E. coli, BLR (DE3) (Novagen), transformed with the deletion variant CG53135-02 inserted into a pET24a vector (Novagen). A research cell bank (RCB) was produced and cell paste containing CG53135-02 was produced by fermentation of cells originating from the RCB. Cell membranes were disrupted by high-pressure homogenization, and lysate was clarified by centrifugation. CG53135-02 was purified by ion exchange chromatography. The final protein fraction was dialyzed against the formulation buffer (100 mM citrate, 1 mM ethylenediaminetetraacetic acid (EDTA), and 1 M L-arginine).
(§5) CG53135-05, DEV10, which were also used in these experiments, was prepared by Cambrex Biosciences (Hopkinton, Mass.) according to Process 1 as described in Section 6.18.1, infra.
(§6) BrdU Incorporation: proliferative activity was measured by treatment of serum-starved cultured cells with a given agent and measurement of BrdU incorporation during DNA synthesis. Cells were cultured in respective manufacturer recommended basal growth medium supplemented with 10% fetal bovine serum or 10% calf serum as per manufacturer recommendations. Cells were grown in 96-well plates to confluence at 37° C. in 10% CO2/air (to subconfluence at 5% CO2 for dedifferentiated chondrocytes and NHOst). Cells were then starved in respective basal growth medium for 24-72 hours. CG53135 protein purified from E. coli or pCEP4/Sec or pCEP4/Sec-FGF 20× enriched conditioned medium was added (10 μL/100 μL of culture) for 18 hours. BrdU (10 μM final concentration) was then added and incubated with the cells for 5 hours. BrdU incorporation was assayed according to the manufacturer's specifications (Roche Molecular Biochemicals, Indianapolis, Ind.).
(§7) The above described experiments were also performed using CG53135-02 and CG53135-05 protein products, and the results are summarized in the Conclusion section below.

[7] = test system: mesenchymal and epithelial cells; assay: Proliferation summary for variants; type: cell-based; conditions: in vitro
Description: as §3, §4, §5, §6, §7

[8] = test system: mouse skeletal muscle cells; assay: BrdU incorporation (Studies L-117.01/02); type: cell-based
Excerpt: as §1, §6

[9] = test system: rabbit synoviocyte cell line, HIG-82; assay: BrdU incorporation (Studies L-117.01/02); type: cell-based
Excerpt: as §1, §6

[10] = test system: human aorta smooth muscle cells (HSMC); assay: BrdU incorporation (Studies L-117.01/02); type: cell-based
Excerpt: as §1, §6

[11] = test system: CCD 1106 KERTr human keratinocytes; assay: BrdU incorporation (Studies L-117.01/02); type: cell-based
Excerpt: as §1, §6

[12] = test system: human pulmonary artery smooth muscle cells; assay: BrdU incorporation (Studies L-117.01/02); type: cell-based
Excerpt: as §1, §6

[13] = test system: Jurkat, an acute T-lymphoblastic leukemia cell line; assay: BrdU incorporation (Studies L-117.01/02); type: cell-based
Excerpt: as §1, §6

[14] = test system: human coronary artery smooth muscle cells; assay: BrdU incorporation (Studies L-117.01/02); type: cell-based
Excerpt: as §1, §6

[15] = test system: TF-1, an erythroblastic leukemia cell line; assay: BrdU incorporation (Studies L-117.01/02); type: cell-based
Excerpt: as §1, §6

[16] = test system: Balb MK mouse keratinocytes; assay: BrdU incorporation (Studies L-117.01/02); type: cell-based
Excerpt: as §1, §6

[17] = test system: CCD-1070Sk normal human foreskin fibroblasts; assay: BrdU incorporation (Studies L-117.01/02); type: cell-based
Excerpt: as §1, §6

[18] = test system: primary human osteoblasts (NHOst); assay: BrdU incorporation (Studies L-117.01/02); type: cell-based
Excerpt: as §1, §6

[19] = test system: HUVECS; assay: Tube formation; type: cell-based, human; conditions: HUVEC
[20] = test system: human dermal microvascular endothelial cells; assay: Cell survival and BrdU incorporation in endothelial cells; type: cell-based; conditions: HMVEC-d
Description: as §6
(§8) Effects of CG53135 on Endothelial Cells: protein therapeutic agents may inhibit or promote angiogenesis, the process through which endothelial cells differentiate into capillaries. Because CG53135 belongs to the fibroblast growth factor family, some members of which have angiogenic properties, the antiangiogenic or pro-angiogenic effects of CG53135 on endothelial cell lines were evaluated. The following cell lines were chosen because they are cell types used in understanding angiogenesis in cancer: HUVEC (human umbilical vein endothelial cells), BAEC (bovine aortic endothelial cells), HMVEC-d (human endothelial, dermal capillary). These endothelial cell types undergo morphogenic differentiation and are representative of large vessel (HUVEC, BAEC) as well as capillary endothelial cells (HMVEC-d).

[21] = test system: bovine aortic endothelial cells; assay: as above; type: cell-based; conditions: BAEC
Description: as §6, §8

[22] = test system: human umbilical vein endothelial cells; assay: as above; type: cell-based; conditions: HUVEC
Description: as §6, §8

Substance: CG53135-01: FGF-20 wild type, stop codon removed; SEQ ID NOs 1 and 2; expressed as tagged full-length variant
- half maximal concentration for induction of DNA synthesis [1]: ~10 ng/mL
- induction of DNA synthesis [1]: dose-dependent manner
- increase in cell number relative to control [2]: approximately 2 fold
- induction of DNA synthesis [3]: induced DNA synthesis
- induction of DNA synthesis [4]: induced DNA synthesis
- VEGF induced cell migration [5]: had no effect
- proliferation of endothelial cells [6]: not
- proliferation of mesenchymal and epithelial cells [7]: induces a proliferative response
- induction of DNA synthesis [8]: did not induce any significant increase in DNA synthesis
- induction of DNA synthesis [9]: induced DNA synthesis
- induction of DNA synthesis [10]: did not induce any significant increase in DNA synthesis
- induction of DNA synthesis [11]: induced DNA synthesis
- induction of DNA synthesis [12]: did not induce any significant increase in DNA synthesis
- BrdU incorporation response [13]: did not show any response
- induction of DNA synthesis [14]: did not induce any significant increase in DNA synthesis
- effect on DNA synthesis [15]: no stimulatory effect
- induction of DNA synthesis [16]: induced DNA synthesis
- induction of DNA synthesis [17]: induced DNA synthesis
- induction of DNA synthesis [18]: did not induce any significant increase in DNA synthesis
- tube formation [19]: did not inhibit tube formation
- cell survival and BrdU incorporation [20]: did not alter cell survival or have stimulatory effects on BrdU incorporation
- cell survival and BrdU incorporation [21]: did not alter cell survival or have stimulatory effects on BrdU incorporation
- cell survival and BrdU incorporation [22]: did not alter cell survival or have stimulatory effects on BrdU incorporation
